Assay type in all cases: cell-based
The target of one assay is T1, IRAK4 (Homo sapiens, UniProt Q9NWZ3).
T1 construct: endogenous in cells; host or cells: OCI-LY10
T1 sequence (Q9NWZ3 1-460): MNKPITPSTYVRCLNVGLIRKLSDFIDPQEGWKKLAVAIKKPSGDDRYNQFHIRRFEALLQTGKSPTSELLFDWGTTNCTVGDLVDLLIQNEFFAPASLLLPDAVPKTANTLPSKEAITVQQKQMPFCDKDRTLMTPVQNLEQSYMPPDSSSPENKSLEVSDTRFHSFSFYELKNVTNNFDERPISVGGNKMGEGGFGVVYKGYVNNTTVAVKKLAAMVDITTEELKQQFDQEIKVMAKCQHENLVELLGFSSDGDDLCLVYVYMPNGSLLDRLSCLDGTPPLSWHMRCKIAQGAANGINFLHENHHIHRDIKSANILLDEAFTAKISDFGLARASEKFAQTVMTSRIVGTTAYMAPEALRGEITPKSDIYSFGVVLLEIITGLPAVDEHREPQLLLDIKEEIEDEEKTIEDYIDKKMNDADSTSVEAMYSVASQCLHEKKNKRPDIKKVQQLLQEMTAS
Description: IRAK4 MSD Degradation in OCI-LY10. The following applies: OCI-LY10 cells, 24 hrs incubation; read-out: IRAK4 degradation in OCI-LY10 at 24 hrs: DC50. The procedure, abridged: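 OCI-LY10 cells treated 4 to 24 h at 37 °C with an 8-point 1:3 series from a 1–10 μM top concentration. IRAK4 remaining in RIPA lysates quantified by sandwich MSD immunoassay (two anti-IRAK4 antibodies, SULFO-TAG read-out). DC50 from a three-parameter logistic fit.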

A further assay deals with OCI-LY10 cells. The assay is described as follows: CTG Cell Viability Assay - OCI-LY10. The following applies: Homo sapiens, 96 h, CellTiter-Glo, 4 days incubation. Here is the method: Compound-mediated viability effect on OCI-LY10 or SUDHL-2 was quantitatively determined using the CellTiter-Glo® Luminescent Cell Viability Assay kit from Promega (Catalog number G7570) following manufacturer's recommended procedures. Briefly, OCI-LY10 or SUDHL-2 cells were seeded into 384 well plates (Grenier Bio-One, Catalog number 781080) with a density of 10,000 cells per well. Compounds were then added to the assay plate with final top concentration of 10 μM and 1:3 dilution series with total of 9 doses. The final DMSO concentration was normalized to 0.2%. The assay plates were incubated at 37° C. for 4 days under 5% CO2. Then the assay plate was equilibrated at room temperature for 10 minutes. To determine cell viability, 30 μL CellTiter Glo reagent was added to each well and the assay plate was centrifuged at 1000 rpm for 30 second, incubated at room temperature for 10 min, and analyzed by detecting the luminescence using a multimode plate reader (EnVision 2105, PerkinElmer). The data was then analyzed by software Prism 7.0 from GraphPad and the dose response curves were fit using a three-parameter logistic equation to calculate IC50.
(In general: In ATP-based viability assays light output follows the ATP content of the culture.)

Assay [1] concerns the target T2, Aiolos (protein product of gene IKZF3) (Homo sapiens, UniProt Q96SW2+Q9UKT9).
T2 construct: endogenous in cells; host or cells: OCI-LY10
Description: Quantification of Aiolos degradation in OCI-LY10 cells (quantitative immunoblotting). The note with it: 6 h treatment. The procedure, abridged:
(§1)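 OCI-LY10 cells (2×10^6/well) treated 6 h with listed compound concentrations. Lysates immunoblotted with fluorescent secondaries for Ikaros (D6N9Y) or Aiolos (D1C1E). Signal taken relative to β-actin and normalized to DMSO control.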
On the technique in general: A western blot detects proteins with antibodies after separation by electrophoresis.

The target of assay [2] is T3, Ikaros (protein product of gene IKZF1) (Homo sapiens, UniProt Q13422+Q96SW2).
T3 construct: endogenous in cells; host or cells: OCI-LY10
T3 sequence (Q13422 whole entry): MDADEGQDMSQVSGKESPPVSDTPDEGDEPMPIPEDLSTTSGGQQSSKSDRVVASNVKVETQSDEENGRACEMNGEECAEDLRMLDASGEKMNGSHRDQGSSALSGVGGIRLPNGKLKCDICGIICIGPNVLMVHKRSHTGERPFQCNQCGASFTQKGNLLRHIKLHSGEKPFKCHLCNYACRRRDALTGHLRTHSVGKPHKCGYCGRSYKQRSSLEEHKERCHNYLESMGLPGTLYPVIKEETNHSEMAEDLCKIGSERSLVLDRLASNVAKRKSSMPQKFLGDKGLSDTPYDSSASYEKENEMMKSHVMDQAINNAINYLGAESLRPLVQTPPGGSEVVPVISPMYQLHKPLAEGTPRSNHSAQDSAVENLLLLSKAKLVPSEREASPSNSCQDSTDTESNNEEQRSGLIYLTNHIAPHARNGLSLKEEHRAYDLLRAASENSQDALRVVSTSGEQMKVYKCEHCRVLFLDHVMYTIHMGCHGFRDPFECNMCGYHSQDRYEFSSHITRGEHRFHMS
T3 sequence (Q96SW2 whole entry): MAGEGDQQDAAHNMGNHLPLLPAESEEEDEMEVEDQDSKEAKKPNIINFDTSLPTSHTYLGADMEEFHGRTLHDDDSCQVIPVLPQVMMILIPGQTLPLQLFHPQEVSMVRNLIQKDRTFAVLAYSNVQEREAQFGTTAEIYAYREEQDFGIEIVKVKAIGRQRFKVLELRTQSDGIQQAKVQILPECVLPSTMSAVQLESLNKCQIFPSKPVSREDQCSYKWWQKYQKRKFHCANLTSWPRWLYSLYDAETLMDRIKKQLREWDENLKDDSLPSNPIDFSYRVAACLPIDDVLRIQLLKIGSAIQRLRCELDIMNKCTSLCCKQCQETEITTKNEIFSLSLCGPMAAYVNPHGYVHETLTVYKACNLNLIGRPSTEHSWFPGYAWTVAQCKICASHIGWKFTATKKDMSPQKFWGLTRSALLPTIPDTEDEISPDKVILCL
T3 sequence (Q16531 whole entry partner): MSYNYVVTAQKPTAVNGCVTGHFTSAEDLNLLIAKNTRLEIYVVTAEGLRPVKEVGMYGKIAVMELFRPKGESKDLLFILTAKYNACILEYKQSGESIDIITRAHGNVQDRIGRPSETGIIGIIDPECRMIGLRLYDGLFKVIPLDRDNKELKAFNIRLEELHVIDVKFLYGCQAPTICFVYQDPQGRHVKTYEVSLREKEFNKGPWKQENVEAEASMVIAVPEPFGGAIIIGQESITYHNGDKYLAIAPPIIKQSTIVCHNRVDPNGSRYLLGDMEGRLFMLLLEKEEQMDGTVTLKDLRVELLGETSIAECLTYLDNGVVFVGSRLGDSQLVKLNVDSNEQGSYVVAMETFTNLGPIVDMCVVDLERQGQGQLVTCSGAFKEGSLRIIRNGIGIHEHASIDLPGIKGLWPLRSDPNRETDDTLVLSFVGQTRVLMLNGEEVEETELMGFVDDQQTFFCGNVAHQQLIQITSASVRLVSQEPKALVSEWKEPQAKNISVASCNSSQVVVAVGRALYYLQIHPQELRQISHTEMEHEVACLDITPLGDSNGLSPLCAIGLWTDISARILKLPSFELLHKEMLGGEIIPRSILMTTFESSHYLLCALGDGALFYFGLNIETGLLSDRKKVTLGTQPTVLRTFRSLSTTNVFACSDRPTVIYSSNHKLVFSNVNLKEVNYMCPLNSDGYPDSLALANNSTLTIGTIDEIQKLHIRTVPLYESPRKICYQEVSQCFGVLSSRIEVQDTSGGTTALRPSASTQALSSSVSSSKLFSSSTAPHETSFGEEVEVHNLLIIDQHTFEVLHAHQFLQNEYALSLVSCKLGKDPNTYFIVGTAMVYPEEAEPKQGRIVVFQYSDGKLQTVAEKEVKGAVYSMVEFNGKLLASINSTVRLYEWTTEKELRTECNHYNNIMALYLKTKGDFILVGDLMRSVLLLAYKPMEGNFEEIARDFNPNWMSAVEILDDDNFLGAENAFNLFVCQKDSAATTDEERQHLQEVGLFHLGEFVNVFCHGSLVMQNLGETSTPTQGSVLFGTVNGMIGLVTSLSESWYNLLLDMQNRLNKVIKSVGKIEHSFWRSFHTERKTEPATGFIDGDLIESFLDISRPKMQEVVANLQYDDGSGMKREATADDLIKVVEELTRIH
Description: Quantification of Ikaros degradation in OCI-LY10 cells (quantitative immunoblotting). The note with it: 6 h treatment. The essentials: as §1

Each structure is given as a SMILES string.

T2 sequence (Q9UKT9 whole entry): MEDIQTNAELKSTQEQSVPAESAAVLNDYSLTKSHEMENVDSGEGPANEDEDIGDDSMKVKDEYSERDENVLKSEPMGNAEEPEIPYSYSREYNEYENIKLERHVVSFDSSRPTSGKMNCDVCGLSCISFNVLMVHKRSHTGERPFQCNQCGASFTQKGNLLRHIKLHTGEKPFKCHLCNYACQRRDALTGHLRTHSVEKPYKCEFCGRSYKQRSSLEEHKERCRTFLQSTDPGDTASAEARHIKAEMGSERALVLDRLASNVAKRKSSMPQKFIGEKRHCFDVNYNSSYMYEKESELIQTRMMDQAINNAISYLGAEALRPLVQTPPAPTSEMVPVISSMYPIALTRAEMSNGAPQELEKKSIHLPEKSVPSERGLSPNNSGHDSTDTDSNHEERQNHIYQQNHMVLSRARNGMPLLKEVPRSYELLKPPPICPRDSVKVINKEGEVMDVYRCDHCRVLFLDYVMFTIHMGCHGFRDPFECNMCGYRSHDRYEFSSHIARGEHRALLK
T2 sequence (Q96SW2 whole entry): as the sequence (Q96SW2 whole entry) above
T2 sequence (Q16531 whole entry partner): as the sequence (Q16531 whole entry partner) above

For orientation: DC50 means the concentration giving 50% degradation. One may read the IC50 as the concentration that gives 50% inhibition. As for `CC(C)(O)c1cc2nc([C@H]3CC[C@H](CN4CC5(CC(CCNc6cccc7c6C(=O)N(C6CCC(=O)NC6=O)C7=O)C5)C4)CC3)sc2cc1NC(=O)c1cccc(C(C)(F)F)c1` (stereo partly shown) [I-50], the DC50 at IRAK4 was 500 to 1000 nM; in assay [1] it was less than 50 nM; in assay [2], less than 50 nM. Further, the 50% inhibitory concentration (IC50) in the assay on OCI-LY10 cells is less than 50 nM.

Turning to `CC(C)(O)c1cc2nc([C@H]3CC[C@H](CN4CC5(CC(CNc6cccc7c6C(=O)N(C6CCC(=O)NC6=O)C7=O)C5)C4)CC3)sc2cc1NC(=O)c1cccc(C(F)(F)F)n1` (stereo partly shown) [I-26], the DC50 (at IRAK4; in assay [1]; in assay [2]) was less than 50 nM throughout. The concentration for half-maximal inhibition (IC50) with OCI-LY10 cells fell in the range of 50 to 100 nM.

As for `CN(C[C@H]1CC[C@H](c2nc3cc(C(C)(C)O)c(NC(=O)c4cccc(C(F)(F)F)n4)cc3s2)CC1)[C@H]1CC[C@]2(CC1)C[C@@H](CNc1cccc3c1C(=O)N(C1CCC(=O)NC1=O)C3=O)C2` (stereo partly shown) [I-25], the 50% degradation concentration (DC50) at IRAK4 is 50 to 100 nM; in assay [1], less than 50 nM; in assay [2], less than 50 nM. The compound further had a 50% inhibitory concentration (IC50) in the assay with OCI-LY10 cells of less than 50 nM.

On to `CC(C)(O)c1cc2nc([C@H]3CC[C@H](CN4CCC5(CC4)CC(CNc4cccc6c4C(=O)N(C4CCC(=O)NC4=O)C6=O)C5)CC3)sc2cc1NC(=O)c1cccc(C(F)(F)F)n1` (stereo partly shown) [I-29], for which the 50% degradation concentration (DC50) (at IRAK4; in assay [1]; in assay [2]) was less than 50 nM in each case. For the same compound, the IC50 in the assay on OCI-LY10 cells was less than 50 nM.

On to `CC(C)(O)c1cc2nc([C@H]3CC[C@H](CN4CC5(CC(CCNc6cccc7c6C(=O)N(C6CCC(=O)NC6=O)C7=O)C5)C4)CC3)sc2cc1NC(=O)c1ccc(C(F)(F)F)nn1` (stereo partly shown) [I-55], for which the results for the DC50 (on IRAK4; in assay [1]; in assay [2]) were more than 1000 nM, less than 50 nM and less than 50 nM, respectively. The compound further had an IC50 in the assay with OCI-LY10 cells of less than 50 nM.

As to `COc1cc2nc([C@H]3CC[C@H](CN4CCC5(CC4)CC(CCNc4cccc6c4C(=O)N(C4CCC(=O)NC4=O)C6=O)C5)CC3)sc2cc1NC(=O)c1cccc(C(C)(F)F)n1` (stereo partly shown) [I-19], the DC50 was 50 to 100 nM at IRAK4, less than 50 nM in assay [1] and 50 to 100 nM in assay [2]. Besides, the half-maximal inhibitory concentration (IC50) in the assay on OCI-LY10 cells lay in the range of 100 to 500 nM.

For the compound `CN(C[C@H]1CC[C@H](c2nc3cc(C(C)(C)O)c(NC(=O)c4cccc(C(F)(F)F)n4)cc3s2)CC1)[C@H]1CC[C@@H](CCNc2cccc3c2C(=O)N(C2CCC(=O)NC2=O)C3=O)CC1` (stereo partly shown) [I-46], the DC50 at IRAK4 is 50 to 100 nM; in assay [1], less than 50 nM; in assay [2], less than 50 nM. In the assay with OCI-LY10 cells, this compound displayed an IC50 of less than 50 nM.

Source of the values: patent US20210228562A1, “IRAK DEGRADERS AND USES THEREOF” (Kymera Therapeutics, Inc., priority 2019, published 2021).
